Measurements reported in patent US12686692B2, “KRas G12D inhibitors” (Mirati Therapeutics, Inc., priority 2020, dated 2026).

What was measured:
[1] = system: KRas G12D-mediated Phosphorylation of ERK; test: Inhibition of KRas G12D-mediated Phosphorylation of ERK in AGS cells; type: cell-based; details: Homo sapiens; AGS cells expressing G12D, 3 hours, phospho-ERK normalized to GAPDH
Procedure: AGS cells (ATCC CRL-1739) expressing G12D were grown in DMEM medium supplemented with 10% fetal bovine serum, 10 mM HEPES, and Penicillin/Streptomycin. Cells were plated in tissue culture treated 96 well plates at a density of 40,000 cells/well and allowed to attach for 12-14 hours. Diluted compounds were then added in a final concentration of 0.5% DMSO. After 3 hours, the medium was removed, 150 μl of 4.0% formaldehyde was added and the plates incubated at room temperature for 20 minutes. The plates were washed with PBS, and permeabilized with 150 μL of ice cold 100% methanol for 10 minutes. Non-specific antibody binding to the plates was blocked using 100 μL Licor blocking buffer (Li-Cor Biotechnology, Lincoln NE) for 1 hour at room temperature.
The amount of phospho-ERK was determined using an antibody specific for the phosphorylated form of ERK and compared to the amount of GAPDH. Primary antibodies used for the detection were added as follows: Phospho-ERK(Cell Signaling cs-9101) diluted 1:500 and GAPDH(Millipore MAB374) diluted 1:5000 in Licor block+0.05% Tween 20. The plates were incubated for 2 hours at room temperature. The plates were washed with PBS+0.05% Tween 20.
Secondary antibodies used to visualize primary antibodies were added as follows: Anti-rabbit-680 diluted 1:1000 and Anti-mouse-800 diluted 1:1000 both in Licor block+0.05% Tween20, and were incubated for 1 hour at room temperature. The plates were washed with PBS+0.05% Tween 20. A 100 μl aliquot of PBS was added to each well and the plates were read on a Li-Cor Odyssey CLX plate reader.
The phospho-ERK(Thr202/Tyr204 signal was normalized to the GAPDH signal for each well and percent of DMSO control values were calculated. IC50 values were generated using a 4-parameter fit of the dose response curve.

KRas G12D = KRas G12D (Homo sapiens, UniProt P01116, G12D); test: KRas G12D Binding Assay (TR-FRET displacement of labeled tracer); set-up: corresponding to amino acids 1:169, produced at Array BioPharma; biotin (protein is biotinylated); details: TR-FRET displacement of Cy5 labelled tracer, biotinylated GDP-loaded KRAS G12D (aa 1:169), 60 minute incubation at 22° C.
Procedure: This Example illustrates that exemplary compounds of the present invention bind to KRas G12D and are capable of displacing a labeled tracer ligand occupying the KRas G12D binding site.
The ability of a compound to bind to KRAS G12D was measured using a TR-FRET displacement assay. Biotinylated GDP-loaded recombinant human KRAS G12D (corresponding to amino acids 1:169, produced at Array BioPharma) was incubated with a custom-made Cy5 labelled tracer, europium labelled streptavidin and compound (2% DMSO final) in buffer (50 mM HEPES [pH 7.5], 5 mM MgCl2, 0.005% Tween-20 & 1 mM DTT). After a 60 minute incubation at 22° C., the reaction was measured using a PerkinElmer EnVision multimode plate reader via TR-FRET dual wavelength detection, and the percent of control (POC) calculated using a ratiometric emission factor. […] The POC values were fit to a 4-parameter logistic curve and the IC50 value was determined as the concentration where the curve crosses 50 POC.

Chain of KRas G12D (P01116 1-169 isoform P01116-2 G12D): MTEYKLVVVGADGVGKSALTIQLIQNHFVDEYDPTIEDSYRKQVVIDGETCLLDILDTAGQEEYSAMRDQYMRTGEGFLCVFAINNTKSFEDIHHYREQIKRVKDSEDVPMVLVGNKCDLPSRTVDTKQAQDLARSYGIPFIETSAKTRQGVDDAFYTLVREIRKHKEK

## CCc1cccc2cc(O)cc(N3CCc4c(nc(OC[C@@]56CCCN5C[C@H](F)C6)nc4N4C[C@H]5CC[C@@H](C4)N5)C3)c12 [Example 7, 4-(4-((1R,5S)-3,8-diazabicyclo[3.2.1]octan-3-yl)-2-(((2R,7aS)-2-fluorotetrahydro-1H-pyrrolizin-7a(5H)-yl)methoxy)-5,8-dihydropyrido[3,4-d]pyrimidin-7(6H)-yl)-5-ethylnaphthalen-2-ol]
[1]
  IC50: 13 nM
KRas G12D
  IC50: 1 nM

## Oc1cc(N2CCc3c(nc(OCC45CCCN4CCC5)nc3N3C[C@H]4CC[C@@H](C3)N4)C2)c2c(Cl)c(F)ccc2c1 [Example 116, 4-(4-((1R,5S)-3,8-diazabicyclo[3.2.1]octan-3-yl)-2-((hexahydro-1H-pyrrolizin-7a-yl)methoxy)-5,6-dihydropyrido[3,4-d]pyrimidin-7(8H)-yl)-5-chloro-6-fluoronaphthalen-2-ol]
[1]
  IC50: 46 nM
KRas G12D
  IC50: 0.5 nM

## CCc1c(F)ccc2cccc(N3CCc4c(nc(OCC56CCCN5C[C@H](F)C6)nc4N4CC5CCC(C4)N5)C3)c12 (mixture of isomers) [Example 20, 4-((1R,5S)-3,8-diazabicyclo[3.2.1]octan-3-yl)-7-(8-ethyl-7-fluoronaphthalen-1-yl)-2-((2-fluorotetrahydro-1H-pyrrolizin-7a(5H)-yl)methoxy)-5,6,7,8-tetrahydropyrido[3,4-d]pyrimidine (racemic, trans)]
[1]
  IC50: 539 nM
KRas G12D
  IC50: 2.8 nM

## CCc1c(F)ccc2cccc(N3CCc4c(nc(OCC56CCCN5CCC6)nc4N4C[C@H]5CC[C@@H](C4)N5)C3)c12 [Example 19, 4-((1R,5S)-3,8-diazabicyclo[3.2.1]octan-3-yl)-7-(8-ethyl-7-fluoronaphthalen-1-yl)-2-((tetrahydro-1H-pyrrolizin-7a(5H)-yl)methoxy)-5,6,7,8-tetrahydropyrido[3,4-d]pyrimidine]
[1]
  IC50: 324 nM
KRas G12D
  IC50: 1.8 nM

## F[C@H]1CN2CCCC2(COc2nc3c(c(N4CC5CCC(C4)N5)n2)CCN(c2cccc4cccc(C(F)(F)F)c24)C3)C1 (mixture of isomers) [Example 51, 4-((1R,5S)-3,8-diazabicyclo[3.2.1]octan-3-yl)-2-((2-fluorotetrahydro-1H-pyrrolizin-7a(5H)-yl)methoxy)-7-(8-(trifluoromethyl)naphthalen-1-yl)-5,6,7,8-tetrahydropyrido[3,4-d]pyrimidine]
[1]
  IC50: > 16700 nM
KRas G12D
  IC50: 16.9 nM

## Oc1cc(N2CCc3c(nc(OC[C@@]45CCCN4C[C@H](F)C5)nc3N3C[C@H]4CC[C@@H](C3)N4)C2)c2c(Cl)cccc2c1 [Example 117, 4-(4-((1R,5S)-3,8-diazabicyclo[3.2.1]octan-3-yl)-2-(((2R,7aS)-2-fluorohexahydro-1H-pyrrolizin-7a-yl)methoxy)-5,6-dihydropyrido[3,4-d]pyrimidin-7(8H)-yl)-5-chloronaphthalen-2-ol]
[1]
  IC50: 76 nM
KRas G12D
  IC50: 0.7 nM

## CCc1cccc2cccc(N3CCc4c(nc(OC[C@]56CCCN5[C@@H](COC(=O)NC)CC6)nc4N4C[C@H]5CC[C@@H](C4)N5)C3)c12 [Example 18, ((3R,7aR)-7a-(((4-((1R,5S)-3,8-diazabicyclo[3.2.1]octan-3-yl)-7-(8-ethylnaphthalen-1-yl)-5,6,7,8-tetrahydropyrido[3,4-d]pyrimidin-2-yl)oxy)methyl)hexahydro-1H-pyrrolizin-3-yl)methyl methylcarbamate]
[1]
  IC50: 70 nM
KRas G12D
  IC50: 2 nM

## Oc1cc(N2CCc3c(nc(OCC45CCCN4C[C@H](F)C5)nc3N3CC4CCC(C3)N4)C2)c2c(Cl)cccc2c1 (mixture of isomers) [Example 49, 4-(4-((1R,5S)-3,8-diazabicyclo[3.2.1]octan-3-yl)-2-((2-fluorotetrahydro-1H-pyrrolizin-7a(5H)-yl)methoxy)-5,8-dihydropyrido[3,4-d]pyrimidin-7(6H)-yl)-5-chloronaphthalen-2-ol]
[1]
  IC50: 77 nM
KRas G12D
  IC50: 0.5 nM

## c1ccc2c(N3CCc4c(nc(OCC56CCCN5CCC6)nc4N4C[C@H]5CC[C@@H](C4)N5)C3)cccc2c1 [Example 114, 4-((1R,5S)-3,8-diazabicyclo[3.2.1]octan-3-yl)-2-((hexahydro-1H-pyrrolizin-7a-yl)methoxy)-7-(naphthalen-1-yl)-5,6,7,8-tetrahydropyrido[3,4-d]pyrimidine]
[1]
  IC50: > 16700 nM
KRas G12D
  IC50: 34.2 nM

## CCc1cccc2cccc(N3CCc4c(nc(OCC56CCCN5C(COC(=O)N5CC[C@H](O)C5)CC6)nc4N4C[C@H]5CC[C@@H](C4)N5)C3)c12 (stereo partly drawn) [Example 105, (7a-(((4-((1R,5S)-3,8-diazabicyclo[3.2.1]octan-3-yl)-7-(8-ethylnaphthalen-1-yl)-5,6,7,8-tetrahydropyrido[3,4-d]pyrimidin-2-yl)oxy)methyl)hexahydro-1H-pyrrolizin-3-yl)methyl (3S)-3-hydroxypyrrolidine-1-carboxylate]
[1]
  IC50: 561 nM
KRas G12D
  IC50: 2.3 nM

## CCc1cccc2cccc(N3CCc4c(nc(OC[C@@]56CCCN5C[C@H](F)C6)nc4[C@H]4C[C@H]5CC[C@@H](C4)N5)C3)c12 [Example 121, 4-((1R,3r,5S)-8-azabicyclo[3.2.1]octan-3-yl)-7-(8-ethylnaphthalen-1-yl)-2-(((2R,7aS)-2-fluorotetrahydro-1H-pyrrolizin-7a(5H)-yl)methoxy)-5,6,7,8-tetrahydropyrido[3,4-d]pyrimidine]
[1]
  IC50: 2360 nM
KRas G12D
  IC50: 8.7 nM

## CCc1cccc2cccc(N3CCc4c(nc(OCC56CCCN5C(COC(=O)N(C)OC)CC6)nc4N4C[C@H]5CC[C@@H](C4)N5)C3)c12 (mixture of isomers) [Example 68, (7a-(((4-((1R,5S)-3,8-diazabicyclo[3.2.1]octan-3-yl)-7-(8-ethylnaphthalen-1-yl)-5,6,7,8-tetrahydropyrido[3,4-d]pyrimidin-2-yl)oxy)methyl)hexahydro-1H-pyrrolizin-3-yl)methyl methoxy(methyl)carbamate]
[1]
  IC50: 1330 nM
KRas G12D
  IC50: 5.9 nM

## CCc1c(F)ccc2cccc(N3CCc4c(nc(OC[C@]56CCCN5[C@@H](COC(=O)N5CCOCC5)CC6)nc4N4C[C@H]5CC[C@@H](C4)N5)C3)c12 [Example 98, ((3R,7aR)-7a-(((4-((1R,5S)-3,8-diazabicyclo[3.2.1]octan-3-yl)-7-(8-ethyl-7-fluoronaphthalen-1-yl)-5,6,7,8-tetrahydropyrido[3,4-d]pyrimidin-2-yl)oxy)methyl)hexahydro-1H-pyrrolizin-3-yl)methyl morpholine-4-carboxylate]
[1]
  IC50: 50 nM
KRas G12D
  IC50: 0.7 nM

## CCc1cccc2cc(O)cc(N3CCc4c(nc(OCC56CCCN5C(CF)CC6)nc4N4CC5CCC(C4)N5)C3)c12 (mixture of isomers) [Example 23, 4-(4-((1R,5S)-3,8-diazabicyclo[3.2.1]octan-3-yl)-2-((3-(fluoromethyl)tetrahydro-1H-pyrrolizin-7a(5H)-yl)methoxy)-5,8-dihydropyrido[3,4-d]pyrimidin-7(6H)-yl)-5-ethylnaphthalen-2-ol (mixture or isomers)]
[1]
  IC50: 119 nM
KRas G12D
  IC50: 1.1 nM

## CCc1cccc2cccc(N3CCc4c(nc(OC[C@@H]5CCCN5C)nc4N4C[C@H]5CC[C@@H](C4)N5)C3)c12 [Example 8, 4-((1R,5S)-3,8-diazabicyclo[3.2.1]octan-3-yl)-7-(8-ethylnaphthalen-1-yl)-2-(((S)-1-methylpyrrolidin-2-yl)methoxy)-5,6,7,8-tetrahydropyrido[3,4-d]pyrimidine]
[1]
  IC50: 12600 nM
KRas G12D
  IC50: 5.5 nM

## Cc1cccc2cccc(N3CCc4c(nc(OCC56CCCN5C[C@H](F)C6)nc4N4CC5CCC(C4)N5)C3)c12 (mixture of isomers) [Example 50, 4-((1R,5S)-3,8-diazabicyclo[3.2.1]octan-3-yl)-2-((2-fluorotetrahydro-1H-pyrrolizin-7a(5H)-yl)methoxy)-7-(8-methylnaphthalen-1-yl)-5,6,7,8-tetrahydropyrido[3,4-d]pyrimidine]
[1]
  IC50: > 16700 nM
KRas G12D
  IC50: 7.1 nM
